Experimental data from PubChem BioAssay (NCI).
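1) Cells in 96-well plates. 2) Compound, 48 h, 5 concentrations. 3) Linear interpolation between surrounding doses. 4) Unreached endpoint = highest concentration. At the GI50, growth is halved. TGI denotes the concentration required for complete inhibition of growth.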

Experiments:
Assay in all cases: growth of human tumour cells (NCI), 48 h
[1] = tested on: HCT-116 colon
[2] = tested on: DU-145 prostate
[3] = tested on: SF-539 CNS
[4] = tested on: HCT-15 colon
[5] = tested on: T-47D breast
[6] = tested on: HS 578T breast
[7] = tested on: IGROV1 ovarian
[8] = tested on: PC-3 prostate
[9] = tested on: MDA-MB-435
[10] = tested on: SK-OV-3 ovarian
[11] = tested on: M14 melanoma
[12] = tested on: KM12 colon
[13] = tested on: U251 CNS
[14] = tested on: NCI-H522 lung
[15] = tested on: SW-620 colon
[16] = tested on: BT-549 breast
[17] = tested on: OVCAR-5 ovarian
[18] = tested on: HCC-2998 colon
[19] = tested on: NCI-H460 lung
[20] = tested on: A549 NSCLC
[21] = tested on: OVCAR-8 ovarian
[22] = tested on: ACHN renal
[23] = tested on: SN12C renal
[24] = tested on: NCI-H23 lung
[25] = tested on: SNB-19 CNS
[26] = tested on: SK-MEL-2 melanoma
[27] = tested on: TK-10 renal
[28] = tested on: HOP-92 NSCLC
[29] = tested on: HL-60(TB) leukemia
[30] = tested on: UO-31 renal
[31] = tested on: SF-295 CNS
[32] = tested on: COLO 205 colon
[33] = tested on: HOP-62 NSCLC
[34] = tested on: SR leukemia
[35] = tested on: NCI/ADR-RES ovarian
[36] = tested on: EKVX NSCLC
[37] = tested on: UACC-62 melanoma
[38] = tested on: CAKI-1 renal
[39] = tested on: SK-MEL-28 melanoma
[40] = tested on: SK-MEL-5 melanoma
[41] = tested on: CCRF-CEM leukemia
[42] = tested on: SF-268 CNS
[43] = tested on: MDA-MB-231 breast
[44] = tested on: K-562 leukemia
[45] = tested on: MCF7 breast
[46] = tested on: LOX IMVI melanoma
[47] = tested on: OVCAR-3 ovarian
[48] = tested on: UACC-257 melanoma
[49] = tested on: 786-0 renal
[50] = tested on: RPMI-8226 leukemia
[51] = tested on: RXF 393 renal
[52] = tested on: SNB-75 CNS
[53] = tested on: OVCAR-4 ovarian
[54] = tested on: MALME-3M melanoma
[55] = tested on: MOLT-4 leukemia

## Clc1cccc(NC=Nc2ccc(-c3nc4ccccc4s3)cc2)c1
[1]
  GI50: 11 µM
  TGI: 24.1 µM
[2]
  GI50: 16.4 µM
  TGI: 38.8 µM
[3]
  GI50: 17.8 µM
  TGI: 34.1 µM
[4]
  GI50: 9.48 µM
  TGI: 20 µM
[5]
  GI50: 10.8 µM
  TGI: 39 µM
[6]
  GI50: 32.6 µM
  TGI: > 50 µM
[7]
  GI50: 11.3 µM
  TGI: 24.3 µM
[8]
  GI50: 12.1 µM
  TGI: > 50 µM
[9]
  GI50: 14.3 µM
  TGI: 32.7 µM
[10]
  GI50: 31.7 µM
  TGI: > 50 µM
[11]
  GI50: 14.8 µM
  TGI: 29.7 µM
[12]
  GI50: 13.7 µM
  TGI: 38.3 µM
[13]
  GI50: 7.85 µM
  TGI: 15.4 µM
[14]
  GI50: 11.8 µM
  TGI: 22.3 µM
[15]
  GI50: 16.7 µM
  TGI: > 50 µM
[16]
  GI50: 23.3 µM
  TGI: > 50 µM
[17]
  GI50: 23.6 µM
  TGI: > 50 µM
[18]
  GI50: 16 µM
  TGI: 42.5 µM
[19]
  GI50: 9.44 µM
  TGI: 23.3 µM
[20]
  GI50: 9.11 µM
  TGI: 20.4 µM
[21]
  GI50: 13.1 µM
  TGI: 30.6 µM
[22]
  GI50: 11.7 µM
  TGI: 27.6 µM
[23]
  GI50: 20.4 µM
  TGI: > 50 µM
[24]
  GI50: 16.1 µM
  TGI: 48.1 µM
[25]
  GI50: 15.2 µM
  TGI: > 50 µM
[26]
  GI50: 18 µM
  TGI: > 50 µM
[27]
  GI50: 21 µM
  TGI: > 50 µM
[28]
  GI50: 19.6 µM
  TGI: > 50 µM
[29]
  GI50: 10.5 µM
  TGI: 27.3 µM
[30]
  GI50: 13.8 µM
  TGI: 33.6 µM
[31]
  GI50: 17.4 µM
  TGI: > 50 µM
[32]
  GI50: 12.2 µM
  TGI: 39.9 µM
[33]
  GI50: 42.3 µM
  TGI: > 50 µM
[34]
  GI50: 9.55 µM
  TGI: 21.1 µM
[35]
  GI50: 13.2 µM
  TGI: 32 µM
[36]
  GI50: 3.97 µM
  TGI: 29.9 µM
[37]
  GI50: 13 µM
  TGI: 38.1 µM
[38]
  GI50: 17.8 µM
  TGI: > 50 µM
[39]
  GI50: 0.143 µM
  TGI: 18.4 µM
[40]
  GI50: 10.5 µM
  TGI: 21.6 µM
[41]
  GI50: 10.5 µM
  TGI: 25.4 µM
[42]
  GI50: 10.6 µM
  TGI: 46.4 µM
[43]
  GI50: 9.72 µM
  TGI: 23.6 µM
[44]
  GI50: 7.81 µM
  TGI: 18.2 µM
[45]
  GI50: 9.44 µM
  TGI: 35.6 µM
[46]
  GI50: 9.46 µM
  TGI: 17.5 µM
[47]
  GI50: 9.32 µM
  TGI: 22.7 µM
[48]
  GI50: 16.1 µM
  TGI: 36.6 µM
[49]
  GI50: 10.6 µM
  TGI: 18.6 µM
[50]
  GI50: 14.4 µM
  TGI: > 50 µM

## COc1ccc(CNC(=O)COc2ccc(/C=N/Nc3nc4ccccc4s3)cc2)cc1
[1]
  GI50: 2.25 µM
  TGI: 6.76 µM
[2]
  GI50: 3.8 µM
  TGI: > 100 µM
[3]
  GI50: 1.65 µM
  TGI: 4.18 µM
[4]
  GI50: 3.44 µM
  TGI: > 100 µM
[5]
  GI50: 1.69 µM
  TGI: 5.36 µM
[6]
  GI50: 2.24 µM
  TGI: 19.1 µM
[7]
  GI50: 1.69 µM
  TGI: 6.73 µM
[8]
  GI50: 3.35 µM
  TGI: > 100 µM
[9]
  GI50: 3.47 µM
  TGI: > 100 µM
[11]
  GI50: 4.69 µM
  TGI: > 100 µM
[12]
  GI50: 2.51 µM
  TGI: > 100 µM
[13]
  GI50: 1.73 µM
  TGI: 5.43 µM
[14]
  GI50: 2.44 µM
  TGI: 9.63 µM
[15]
  GI50: 5.23 µM
  TGI: > 100 µM
[16]
  GI50: 1.61 µM
  TGI: 3.41 µM
[17]
  GI50: 4.57 µM
  TGI: > 100 µM
[18]
  GI50: 5.37 µM
  TGI: > 100 µM
[19]
  GI50: 2.65 µM
  TGI: 7.3 µM
[20]
  GI50: 3.12 µM
  TGI: 87.6 µM
[21]
  GI50: 3.93 µM
  TGI: > 100 µM
[22]
  GI50: 1.67 µM
  TGI: 3.42 µM
[23]
  GI50: 2.84 µM
  TGI: > 100 µM
[24]
  GI50: 3.05 µM
  TGI: 12.6 µM
[25]
  GI50: 2.69 µM
  TGI: 12.6 µM
[26]
  GI50: 3.84 µM
  TGI: 16 µM
[27]
  GI50: 3.49 µM
  TGI: 16.3 µM
[51]
  GI50: 1.75 µM
  TGI: 3.76 µM
[28]
  GI50: 1.4 µM
  TGI: 4.41 µM
[29]
  GI50: > 100 µM
  TGI: > 100 µM
[52]
  GI50: 1.07 µM
  TGI: 3.29 µM
[31]
  GI50: 3.25 µM
  TGI: 11.2 µM
[53]
  GI50: 1.56 µM
  TGI: 5 µM
[33]
  GI50: 2.22 µM
  TGI: 11.6 µM
[34]
  GI50: 3.05 µM
  TGI: > 100 µM
[35]
  GI50: 3.12 µM
  TGI: 19.4 µM
[36]
  GI50: 2.98 µM
  TGI: 32.5 µM
[37]
  GI50: 2.32 µM
  TGI: 11.8 µM
[38]
  GI50: 1.98 µM
  TGI: 5.21 µM
[39]
  GI50: 4.35 µM
  TGI: > 100 µM
[40]
  GI50: 2.01 µM
  TGI: 5.06 µM
[41]
  GI50: > 100 µM
  TGI: > 100 µM
[42]
  GI50: 3.04 µM
  TGI: 12.2 µM
[43]
  GI50: 1.86 µM
  TGI: 4.45 µM
[54]
  GI50: 1.55 µM
  TGI: 3.89 µM
[55]
  GI50: > 100 µM
  TGI: > 100 µM
[45]
  GI50: 3.52 µM
  TGI: 27.5 µM
[46]
  GI50: 3.04 µM
  TGI: > 100 µM
[47]
  GI50: 2.1 µM
  TGI: 5.42 µM
[48]
  GI50: 4.2 µM
  TGI: > 100 µM
[49]
  GI50: 2.37 µM
  TGI: 5.9 µM
[50]
  GI50: 2.13 µM
  TGI: > 100 µM
